Test results from the supplement of paper PMC10307832.

Tests used:
Assay in all cases: relative viability (nuclei count vs DMSO), 5 days (fraction); higher = more cells survive
[1] = system: 201T
Summary of the method: (§1)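 A single step with final 0.05% Triton X-100, 1% formaldehyde and 1 ug/ml Hoechst fixed the cells and stained nuclei 5 days after treatment. Lung cancer cell lines in 1536-well plates had been treated by pin tool the day after seeding with one drug alone or a fixed anchor-drug dose plus five library-drug doses (not always all listed) in √10 steps, and nuclei were counted on 4× images. Relative viability is the ratio of nuclei in treated wells to nuclei in vehicle wells, taken as the median of duplicate plates.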

[2] = system: A-427
Summary of the method: as §1

[3] = system: ABC-1
Summary of the method: as §1

[4] = system: BEN
Summary of the method: as §1

[5] = system: CAL-12T
Summary of the method: as §1

[6] = system: H3255
Summary of the method: as §1

[7] = system: LC-2-ad
Summary of the method: as §1

[8] = system: LCLC-97TM1
Summary of the method: as §1

[9] = system: NCI-H1650
Summary of the method: as §1

[10] = system: NCI-H1651
Summary of the method: as §1

[11] = system: NCI-H1915
Summary of the method: as §1

[12] = system: NCI-H1944
Summary of the method: as §1

[13] = system: NCI-H2023
Summary of the method: as §1

[14] = system: NCI-H2087
Summary of the method: as §1

[15] = system: NCI-H460
Summary of the method: as §1

[16] = system: NCI-H520
Summary of the method: as §1

[17] = system: NCI-H596
Summary of the method: as §1

[18] = system: NCI-H650
Summary of the method: as §1

[19] = system: NCI-H661
Summary of the method: as §1

[20] = system: NCI-H727
Summary of the method: as §1

[21] = system: PC-3 [JPC-3]
Summary of the method: as §1

Nc1ccn([C@@H]2O[C@H](CO)[C@@H](O)[C@@H]2O)c(=O)n1 [Cytarabine] + CS(=O)(=O)CCNCc1ccc(-c2ccc3ncnc(Nc4ccc(OCc5cccc(F)c5)c(Cl)c4)c3c2)o1 [Lapatinib] (partner 2 µM)
relative viability ([1]; first compound 0.005 µM): 1.08 | relative viability ([1]; first compound 0.01581 µM): 0.997 | relative viability ([1]; first compound 0.05 µM): 1.04 | relative viability ([1]; first compound 0.1581 µM): 0.889 | relative viability ([1]; first compound 0.5 µM): 0.919 | relative viability ([2]; first compound 0.005 µM): 0.93 | relative viability ([2]; first compound 0.01581 µM): 0.565 | relative viability ([2]; first compound 0.05 µM): 0.274 | relative viability ([2]; first compound 0.1581 µM): 0.184 | relative viability ([2]; first compound 0.5 µM): 0.183 | relative viability ([3]; first compound 0.005 µM): 1.29 | relative viability ([3]; first compound 0.01581 µM): 1.24 | relative viability ([3]; first compound 0.1581 µM): 1.16 | relative viability ([3]; first compound 0.5 µM): 1.03 | relative viability ([4]; first compound 0.005 µM): 0.606 | relative viability ([4]; first compound 0.01581 µM): 0.549 | relative viability ([4]; first compound 0.05 µM): 0.414 | relative viability ([4]; first compound 0.1581 µM): 0.333 | relative viability ([4]; first compound 0.5 µM): 0.256 | relative viability ([5]; first compound 0.005 µM): 0.848 | relative viability ([5]; first compound 0.01581 µM): 0.629 | relative viability ([5]; first compound 0.05 µM): 0.542 | relative viability ([5]; first compound 0.1581 µM): 0.388 | relative viability ([5]; first compound 0.5 µM): 0.269 | relative viability ([6]; first compound 0.005 µM): 0.268 | relative viability ([6]; first compound 0.01581 µM): 0.226 | relative viability ([6]; first compound 0.05 µM): 0.158 | relative viability ([6]; first compound 0.1581 µM): 0.197 | relative viability ([6]; first compound 0.5 µM): 0.188 | relative viability ([7]; first compound 0.005 µM): 0.878 | relative viability ([7]; first compound 0.01581 µM): 0.868 | relative viability ([7]; first compound 0.05 µM): 0.926 | relative viability ([7]; first compound 0.1581 µM): 0.26 | relative viability ([7]; first compound 0.5 µM): 0.192 | relative viability ([8]; first compound 0.005 µM): 1.06 | relative viability ([8]; first compound 0.01581 µM): 0.495 | relative viability ([8]; first compound 0.05 µM): 0.163 | relative viability ([8]; first compound 0.1581 µM): 0.161 | relative viability ([8]; first compound 0.5 µM): 0.0949 | relative viability ([9]; first compound 0.005 µM): 0.807 | relative viability ([9]; first compound 0.01581 µM): 0.604 | relative viability ([9]; first compound 0.05 µM): 0.317 | relative viability ([9]; first compound 0.1581 µM): 0.247 | relative viability ([9]; first compound 0.5 µM): 0.155 | relative viability ([10]; first compound 0.005 µM): 0.801 | relative viability ([10]; first compound 0.01581 µM): 0.845 | relative viability ([10]; first compound 0.05 µM): 1.02 | relative viability ([10]; first compound 0.1581 µM): 0.421 | relative viability ([10]; first compound 0.5 µM): 0.288 | relative viability ([11]; first compound 0.005 µM): 0.868 | relative viability ([11]; first compound 0.01581 µM): 0.955 | relative viability ([11]; first compound 0.05 µM): 0.848 | relative viability ([11]; first compound 0.1581 µM): 0.393 | relative viability ([11]; first compound 0.5 µM): 0.257 | relative viability ([12]; first compound 0.005 µM): 0.603 | relative viability ([12]; first compound 0.01581 µM): 0.336 | relative viability ([12]; first compound 0.05 µM): 0.318 | relative viability ([12]; first compound 0.1581 µM): 0.177 | relative viability ([12]; first compound 0.5 µM): 0.153 | relative viability ([13]; first compound 0.005 µM): 0.515 | relative viability ([13]; first compound 0.01581 µM): 0.224 | relative viability ([13]; first compound 0.05 µM): 0.144 | relative viability ([13]; first compound 0.1581 µM): 0.0848 | relative viability ([13]; first compound 0.5 µM): 0.0542 | relative viability ([14]; first compound 0.005 µM): 1.04 | relative viability ([14]; first compound 0.01581 µM): 0.967 | relative viability ([14]; first compound 0.05 µM): 0.894 | relative viability ([14]; first compound 0.1581 µM): 0.678 | relative viability ([14]; first compound 0.5 µM): 0.402 | relative viability ([15]; first compound 0.005 µM): 0.333 | relative viability ([15]; first compound 0.01581 µM): 1.1 | relative viability ([15]; first compound 0.05 µM): 0.4 | relative viability ([15]; first compound 0.1581 µM): 0.0338 | relative viability ([15]; first compound 0.5 µM): 0.0305 | relative viability ([16]; first compound 0.005 µM): 0.557 | relative viability ([16]; first compound 0.01581 µM): 0.743 | relative viability ([16]; first compound 0.05 µM): 0.911 | relative viability ([16]; first compound 0.1581 µM): 0.552 | relative viability ([16]; first compound 0.5 µM): 0.47 | relative viability ([17]; first compound 0.005 µM): 1.03 | relative viability ([17]; first compound 0.01581 µM): 0.903 | relative viability ([17]; first compound 0.05 µM): 0.785 | relative viability ([17]; first compound 0.1581 µM): 0.746 | relative viability ([17]; first compound 0.5 µM): 0.609 | relative viability ([18]; first compound 0.005 µM): 0.735 | relative viability ([18]; first compound 0.01581 µM): 0.535 | relative viability ([18]; first compound 0.05 µM): 0.363 | relative viability ([18]; first compound 0.1581 µM): 0.202 | relative viability ([18]; first compound 0.5 µM): 0.195 | relative viability ([19]; first compound 0.005 µM): 0.544 | relative viability ([19]; first compound 0.01581 µM): 0.465 | relative viability ([19]; first compound 0.05 µM): 0.49 | relative viability ([19]; first compound 0.1581 µM): 0.278 | relative viability ([19]; first compound 0.5 µM): 0.233 | relative viability ([20]; first compound 0.005 µM): 0.766 | relative viability ([20]; first compound 0.01581 µM): 0.602 | relative viability ([20]; first compound 0.05 µM): 0.606 | relative viability ([20]; first compound 0.1581 µM): 0.339 | relative viability ([20]; first compound 0.5 µM): 0.28 | relative viability ([21]; first compound 0.005 µM): 0.435 | relative viability ([21]; first compound 0.01581 µM): 0.465 | relative viability ([21]; first compound 0.05 µM): 0.426 | relative viability ([21]; first compound 0.1581 µM): 0.396 | relative viability ([21]; first compound 0.5 µM): 0.389
